Results: ChEMBL document CHEMBL1201862, “PubChem BioAssay data set” (2004)
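Each compound was tested at five concentrations against cells in 96-well plates for 48 hours. Abbreviation: GI50, concentration required for 50% inhibition of growth.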 The source made the active and inactive calls. No stated cut-off is given here; in the data, active = GI50 up to about 1.1 µM and inactive = higher.

Assays:
Assay in all cases: DTP human tumour cell line panel, 48 h
DLD-1 = system: DLD-1
DMS-114 = system: DMS-114
HOP-18 = system: HOP-18
KM-20L2 = system: KM-20L2
LXFL 529 = system: LXFL 529
M19-MEL = system: M19-MEL
RXF 631 = system: RXF 631
SNB-78 = system: SNB-78
XF498 = system: XF498

Measured: GI50

Cn1nc(-c2ccccc2)c2c(/C=C/c3ccccc3)onc2c1=O
inactive: DLD-1 78.9 µM | DMS-114 98.4 µM | HOP-18 25.5 µM | KM-20L2 > 100 µM | LXFL 529 > 100 µM | M19-MEL > 100 µM | RXF 631 73.3 µM | SNB-78 38.7 µM | XF498 26.8 µM

COC(=O)C(=O)C1CCCCC(C2=NC3NN=C(N)N3C2=O)C1=O (centres undefined)
inactive: DLD-1 > 100 µM | DMS-114 > 100 µM | HOP-18 > 100 µM | KM-20L2 > 100 µM | LXFL 529 > 100 µM | M19-MEL > 100 µM | RXF 631 > 100 µM | XF498 > 100 µM

N#CC12CCC(O)C(CC1)C2=O (centres undefined)
inactive: DLD-1 47.3 µM | DMS-114 19.4 µM | HOP-18 > 100 µM | KM-20L2 > 100 µM | LXFL 529 > 10 µM | M19-MEL > 100 µM | RXF 631 > 100 µM | SNB-78 > 100 µM | XF498 > 100 µM

COc1cc(C)c(C)c(OC(=O)c2c(C)c(C)c(OC)c(C)c2OC)c1C
inactive: DLD-1 7.31 µM | DMS-114 3.29 µM | HOP-18 10.4 µM | KM-20L2 4.17 µM | LXFL 529 8.87 µM | M19-MEL 7.6 µM | RXF 631 10.3 µM | SNB-78 21.1 µM | XF498 12.2 µM

COc1cc2c(cc1OC)C(CC1=C(c3ccccc3)CN3CCc4cc(OC)c(OC)cc4C3C1)NCC2 (centres undefined)
inactive: DLD-1 19.1 µM | DMS-114 14.3 µM | HOP-18 14.6 µM | KM-20L2 13.4 µM | LXFL 529 16.6 µM | M19-MEL 17 µM | RXF 631 14.8 µM | SNB-78 15.6 µM | XF498 11.7 µM
